# Assay results: patent publication US9850216B2 (H. LEE MOFFITT CANCER CENTER AND RESEARCH INSTITUTE, INC., priority 2013, dated 2017)
# Where “and” joins values, the source holds several entries; their conditions need not be identical. Equal entries are not always repeated.
# Experiments:
# [1] = molecular target: ACK1 (Homo sapiens, UniProt Q07912); assay: ACK1 ELISA: phosphorylation of AKT-derived peptide; assay type: biochemical; details: 10 μM, Table 1, replicate values listed; for inhibition at 10 µM: read-out: % Inhibition at 10 μM (ELISA)
# ACK1, sequence (Q07912 whole entry): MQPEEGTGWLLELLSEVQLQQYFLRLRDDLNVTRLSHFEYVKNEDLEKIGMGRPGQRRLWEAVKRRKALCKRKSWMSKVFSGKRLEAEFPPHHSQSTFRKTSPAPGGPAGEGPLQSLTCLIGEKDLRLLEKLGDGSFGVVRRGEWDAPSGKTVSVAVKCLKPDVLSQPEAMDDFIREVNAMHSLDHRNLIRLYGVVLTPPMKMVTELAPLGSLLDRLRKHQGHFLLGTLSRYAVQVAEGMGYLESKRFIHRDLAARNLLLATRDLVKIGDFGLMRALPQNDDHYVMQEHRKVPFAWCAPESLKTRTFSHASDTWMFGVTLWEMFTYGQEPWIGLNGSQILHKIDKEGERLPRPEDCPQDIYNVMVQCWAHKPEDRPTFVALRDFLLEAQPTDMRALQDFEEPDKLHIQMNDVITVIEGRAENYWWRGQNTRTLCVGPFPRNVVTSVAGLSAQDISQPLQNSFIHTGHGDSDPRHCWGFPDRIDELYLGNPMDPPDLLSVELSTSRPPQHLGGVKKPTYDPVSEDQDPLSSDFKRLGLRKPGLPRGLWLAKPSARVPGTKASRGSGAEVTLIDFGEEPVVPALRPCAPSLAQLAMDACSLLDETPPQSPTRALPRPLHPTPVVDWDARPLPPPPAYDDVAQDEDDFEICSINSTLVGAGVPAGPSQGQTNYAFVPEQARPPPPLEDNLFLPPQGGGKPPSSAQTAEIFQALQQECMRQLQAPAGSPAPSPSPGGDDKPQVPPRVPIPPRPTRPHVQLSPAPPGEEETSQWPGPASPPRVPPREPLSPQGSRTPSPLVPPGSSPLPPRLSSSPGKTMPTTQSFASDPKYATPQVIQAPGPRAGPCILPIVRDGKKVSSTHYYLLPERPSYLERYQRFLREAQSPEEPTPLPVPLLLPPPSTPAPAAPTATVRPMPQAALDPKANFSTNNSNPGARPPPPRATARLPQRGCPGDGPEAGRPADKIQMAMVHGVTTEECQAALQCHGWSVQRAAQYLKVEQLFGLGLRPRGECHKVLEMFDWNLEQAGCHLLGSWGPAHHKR
Structure (SMILES),% Inhibition at 10 μM (ELISA) ([1]; hydrochloride),melting point,% Inhibition at 10 μM (ELISA) [1],inhibition at 10 µM [1] [%]
"Cl.Fc1cc(Nc2ncc(Br)c(NCC3CCCO3)n2)ccc1Cl (stereo not drawn) [YL7-172-7, 5-Bromo-N2-(4-chloro-3-fluorophenyl)-N4-((tetrahydrofuran-2-yl)methyl)pyrimidine-2,4-diamine hydrochloride]",0% and 5% and 3%,172 °C (dec.),,
"COc1ccc(Nc2ncc(C(=O)Nc3c(F)cccc3Cl)c(Nc3ccccc3SC)n2)cc1 [YL7-039-1, N-(2-chloro-6-fluorophenyl)-2-(4-methoxyphenylamino)-4-(2-(methylthio)phenylamino)pyrimidine-5-carboxamide]",,261 °C (dec.),7% and 0%,
"CCSc1ccccc1Nc1nc(Nc2ccc(OC)cc2)ncc1C(=O)Nc1c(F)cccc1Cl [YL7-058-3, N-(2-chloro-6-fluorophenyl)-4-(2-(ethylthio)phenylamino)-2-(4-methoxyphenylamino)pyrimidine-5-carboxamide]",,250 °C (dec.),1% and 0%,
"Cl.Oc1ccc(Nc2nc(NCC3CCCO3)c3ccccc3n2)cc1F (stereo not drawn) [YL8-001, 2-Fluoro-4-(4-((tetrahydrofuran-2-yl)methylamino)quinazolin-2-ylamino)phenol hydrochloride]",4% and 10% and −6%,144 °C (dec.),,
"COc1ccc(Nc2ncc(C(=O)Nc3c(F)cccc3Cl)c(Nc3ccccc3SC(C)C)n2)cc1 [YL7-045-3, N-(2-chloro-6-fluorophenyl)-4-(2-(isopropylthio)phenylamino)-2-(4-methoxyphenylamino)pyrimidine-5-carboxamide]",,237 to 240 °C,−15% and 0%,
"Cl.O=C(Nc1c(F)cccc1Cl)c1cnc(Nc2ccc(O)c(Cl)c2)nc1NCC1CCCO1 (stereo not drawn) [YL8-009-1, 2-(3-Chloro-4-hydroxyphenylamino)-N-(2-chloro-6-fluorophenyl)-4-((tetrahydrofuran-2-yl)methylamino)pyrimidine-5-carboxamide hydrochloride]",42% and 48%,158 °C (dec.),,41
"CC(C)S(=O)(=O)c1ccccc1Nc1nc(Nc2ccc(C(N)=O)cc2)ncc1C(=O)Nc1c(F)cccc1Cl [YL7-106-3, 2-(4-Carbamoylphenylamino)-N-(2-chloro-6-fluorophenyl)-4-(2-(isopropylsulfonyl)phenylamino)pyrimidine-5-carboxamide]",,230 °C (dec.),43%,51
"CC(C)S(=O)(=O)c1ccccc1Nc1nc(Nc2ccc(N3CCOCC3)cc2)ncc1C(=O)Nc1c(F)cccc1Cl [YL7-097-1, N-(2-chloro-6-fluorophenyl)-4-(2-(isopropylsulfonyl)phenylamino)-2-(4-morpholinophenylamino)pyrimidine-5-carboxamide]",,220 °C (dec.),65%,85
"CCCS(=O)(=O)c1ccccc1Nc1nc(Nc2ccc(OC)cc2)ncc1C(=O)Nc1c(F)cccc1Cl [YL7-055-1, N-(2-chloro-6-fluorophenyl)-2-(4-methoxyphenylamino)-4-(2-(propylsulfonyl)phenylamino)pyrimidine-5-carboxamide]",,234 to 235 °C,27% and 13%,
"CCCSc1ccccc1Nc1nc(Nc2ccc(OC)cc2)ncc1C(=O)Nc1c(F)cccc1Cl [YL7-055-3, N-(2-chloro-6-fluorophenyl)-2-(4-methoxyphenylamino)-4-(2-(propylthio)phenylamino)pyrimidine-5-carboxamide]",,248 to 249 °C,1% and 13%,
"CS(=O)(=O)c1ccccc1Nc1nc(Nc2ccc(O)cc2)ncc1C(=O)Nc1c(F)cccc1Cl [YL7-038, N-(2-chloro-6-fluorophenyl)-2-(4-hydroxyphenylamino)-4-(2-(methylsulfonyl)phenylamino)pyrimidine-5-carboxamide]",,238 °C (dec.),39% and 18%,
"CCCS(=O)(=O)c1ccccc1Nc1nc(Nc2ccc(O)cc2)ncc1C(=O)Nc1c(F)cccc1Cl [YL7-055-2, N-(2-chloro-6-fluorophenyl)-2-(4-hydroxyphenylamino)-4-(2-(propylsulfonyl)phenylamino)pyrimidine-5-carboxamide]",,165 °C (dec.),58%,57
"CCSc1ccccc1Nc1nc(Nc2ccc(O)cc2)ncc1C(=O)Nc1c(F)cccc1Cl [YL7-058-4, N-(2-chloro-6-fluorophenyl)-4-(2-(ethylthio)phenylamino)-2-(4-hydroxyphenylamino)pyrimidine-5-carboxamide]",,233 °C (dec.),24% and 47%,
"Cl.O=C(O)CCCc1ccc(Nc2ncc(Cl)c(NC[C@H]3CCCO3)n2)cc1 [NT1-026, (R)-4-(4-(5-Chloro-4-((tetrahydrofuran-2-yl)methylamino)pyrimidin-2-ylamino)phenyl)butanoic acid]",,180 °C (dec.),65%,55
"Cl.O=C(O)c1cc(Nc2ncc(C(=O)Nc3c(F)cccc3Cl)c(NCC3CCCO3)n2)ccc1O (stereo not drawn) [YL8-009-2, 5-(5-(2-Chloro-6-fluorophenylcarbamoyl)-4-((tetrahydrofuran-2-yl)methylamino)pyrimidin-2-ylamino)-2-hydroxybenzoic acid hydrochloride]",40% and 55%,298 °C (dec.),,44
"CCSc1ccccc1Nc1nc(Cl)ncc1C(=O)Nc1c(F)cccc1Cl [YL7-053, 2-Chloro-N-(2-chloro-6-fluorophenyl)-4-(2-(ethylthio)phenylamino)pyrimidine-5-carboxamide]",,205 to 208 °C,,0
"Cl.O=C(O)CCCc1ccc(Nc2ncc(Cl)c(NC[C@@H]3CCCO3)n2)cc1 [NT1-027, (S)-4-(4-(5-Chloro-4-((tetrahydrofuran-2-yl)methylamino)pyrimidin-2-ylamino)phenyl)butanoic acid]",,180 °C (dec.),64%,52
CC(C)S(=O)(=O)c1ccccc1Nc1nc(Nc2ccc(S(N)(=O)=O)cc2)ncc1C(=O)Nc1c(F)cccc1Cl [YL7-100-1],,192 °C (dec.),6%,8
"CN1CCN(c2ccc(Nc3ncc(F)c(NCC4CCCO4)n3)cc2)CC1 (stereo not drawn) [DZ1-098, 5-fluoro-N2-(4-(4-methylpiperazin-1-yl)phenyl)-N4-((tetrahydrofuran-2-yl)methyl)pyrimidine-2,4-diamine]",,86 °C (dec.),48%,61
"COc1ccc(Nc2ncc(C(=O)Nc3c(F)cccc3Cl)c(Nc3ccccc3S(=O)(=O)C(C)C)n2)cc1 [YL7-045-1, N-(2-chloro-6-fluorophenyl)-4-(2-(isopropylsulfonyl)phenylamino)-2-(4-methoxyphenylamino)pyrimidine-5-carboxamide]",,246 °C (dec.),37% and 18%,
"Cl.NC(=O)c1ccc(Nc2ncc(Br)c(NCC3CCCO3)n2)cc1 (stereo not drawn) [YL7-172-5, 4-(5-Bromo-4-((tetrahydrofuran-2-yl)methylamino)pyrimidin-2-ylamino)benzamide hydrochloride]",31% and 77% and 82%,251 °C (dec.),,
